Values of other authors in US20150025027A1 (PHARTRIALS PERQUISAS FARMACÊUTICAS LTDA, priority 2012, published 2015).
In brackets after ≈: the same amount, converted by molar mass.

Columns and labels:
[1] = not given; remark: listed apart in the source
[2] = not given; remark: listed apart in the source
[3] = not given; remark: listed apart in the source
[4] = high-risk, obese population; vs. 10% in comparison group

CC1(C)OC2CO[C@@]3(COS(N)(=O)=O)OC(C)(C)O[C@H]3C2O1 (stereo partly shown) [Topiramate]
weight loss in humans: effective in weight loss
time to peak plasma concentration ([1]; after oral administration): 2 h
time to plasma concentrations in the state of equilibrium ([1]; days of treatment): 4 days
share of the dose administered per metabolite ([1]; each of six metabolites): ≤ 5%
dose metabolized ([1]; forming six metabolites): 30%
dose administered eliminated through the urine ([1]; in vivo): 70%
oral bioavailability ([1]; oral): 80%
solubility in water [2]: 9.8 mg/mL (≈ 28.9 mM)
log P [3]: −0.7

CC(C)CC(N(C)C)C1(c2ccc(Cl)cc2)CCC1 (stereo not shown) [sibutramine]
cardiovascular outcomes (AMI, CVA, cardiorespiratory failure or death) in patients receiving the drug [4]: 11.4%

CC(NC(C)(C)C)C(=O)c1cccc(Cl)c1 (stereo not shown) [Bupropion, 1-(3-chlorophenyl)-2-{(1,1-dimethyl)-amino]-1-propanone]
half-life ([1]; in vivo): 24 h
solubility in water [2]: 312 mg/mL (≈ 1300 mM)
log P [3]: 3.6
